# Data from patent publication US20230372542A1, “COMPOSITION AND METHODS FOR MODULATING TCF4 GENE EXPESSION AND TREATING PITT HOPKINS SYNDROME” (The Regents of the University of California, priority 2020, published 2023).
# How the values were obtained:
# Type in all cases: cell-based, human
# NPCs [1] = test: NPC proliferation (live cell count, EdU) after Wnt signaling manipulation
# Description: Proliferation and apoptosis assays.
# (§1) Wnt signaling manipulation. For manipulating the Wnt/β-catenin signaling pathway in NPCs, 200,000 cells were seeded on a 6-well plate, followed by treatment with specific agonist CHIR99021 (1 μM) for 4 days. Controls were treated with DMSO (CHIR diluent) at the same concentration and for the same duration. […] In all cases, treated cells were assayed to measure activity of the Wnt pathway via transfection with the TOP-Flash plasmids described herein.
# NPCs [2] = test: RT-qPCR gene expression in NPCs after Wnt signaling manipulation
# Description: Real time quantitative PCR. Total RNA was extracted using RNeasy Mini Plus kit (Qiagen), followed by DNase I treatment on the column, as per the manufacturer's recommendations. Two and a half micrograms of total RNA were reverse transcribed into cDNA using the Superscript III First-Strand Reverse Transcription System (Thermo Fisher Scientific). Real-time quantitative PCR (RT-qPCR) was performed using pre-validated FAM-MGB TaqMan probes (Thermo Fisher Scientific) and the TaqMan universal master mix II without UNG (Thermo Fisher Scientific) on a CFX Connect Real Time PCR detection system (Bio-Rad), with the following cycling parameters: 94° C. for 3 min, followed by 40 cycles of 94° C. for 30 s and 68° C. for 1 min. Amplification and denaturation curves for all probes were analyzed to verify amplification of just one amplicon. All RT-qPCR analyses were conducted using RNA extracted from at least 3 independent biological samples per subject/condition, and normalized to the following endogenous control genes (TBP, ACTB, and GAPDH). Relative expression was calculated using the traditional ΔΔCt method.
# as §1
# NPCs [3] = test: p16INK4a+ (senescent) cells in NPCs treated with CHIR99021; conditions: PTHS NPCs
# Description: For immunofluorescence labeling of NPCs, these cells were seeded at a density of 50,000 cells per well of a LabTek II 8-well chambered slide. When cells reached 50% confluency, they were fixed and processed for immunostaining in the same manner as described for iPSC colonies, with the following primary antibodies: rabbit anti-TCF4 (Abcam; ab217668; 1:1000); and chicken anti-vimentin (VIM) (Abcam; ab22651; 1:2000). NPCs were also stained to detect senescence associated P-galactosidase (SA-P-gal), using the CellEvent™ Senescence Green Detection Kit (Thermo Fisher Scientific; C10850) after antigen retrieval as described above. The same method described above for counting weakly and strongly stained SOX2+ cells after p16^INK4a co-staining was applied to NPCs.
# as §1, with “herein. For all experiments, 3 biological replicates were used per subject line, and similar results were obtained in at least 3 independent experiments.” for “herein.”
# [4] = PTHS NPCs in 2D culture, CHIR (FIG. 16K)
smiles,measurement,setting,value
Cc1c[nH]c(-c2cnc(NCCNc3ccc(C#N)cn3)nc2-c2ccc(Cl)cc2Cl)n1 [CHIR99021],proliferation rates,"NPCs [1]; PTHS NPCs, CHIR99021 1 μM, 4 days (FIGS. 9G-H)",rescued the proliferation rates
same,proliferation,"NPCs [1]; parent NPCs in 2D culture, CHIR (FIGS. 9G-H)",does not lead to increased proliferation
same,PCDH15 expression,"NPCs [2]; NPCs, CHIR99021 (FIG. 16N)",further reduces its expression
same,expression of TCF4,NPCs [2]; [4],increased
same,expression of TCF4 downstream targets (GADD45G),NPCs [2]; [4],increased
same,expression of pro-proliferative gene HES1,"NPCs [2]; PTHS NPCs, CHIR99021 (FIG. 9J)",increased the expression
same,expression of proneural gene ASCL1,"NPCs [2]; PTHS NPCs, CHIR99021 (FIG. 9J)",increased the expression
same,expression of proneural gene NEUROD1,"NPCs [2]; PTHS NPCs, CHIR99021 (FIG. 9J)",increased the expression
same,SOX3 expression,"NPCs [2]; PTHS progenitors, CHIR99021 (FIG. 10F)",increased SOX3 expression
same,percentage of p16INK4a senescent cells,NPCs [3],decreased the percentage
